Reference: the NIST ThermoML archive (doi:10.1021/je3000876)

What was measured:
[1] = refractive index (Na D-line) (dimensionless); conditions: 101.33 kPa, Liquid, Standard Abbe refractometry
[2] = for viscosity / mass density: 101.33 kPa, Liquid; for viscosity: Cone and plate viscometry; for mass density: Vibrating tube method

NC(=O)Cn1cc[n+](CCCCn2cc[n+](CC(N)=O)c2)c1.O=S(=O)([N-]S(=O)(=O)C(F)(F)F)C(F)(F)F.O=S(=O)([N-]S(=O)(=O)C(F)(F)F)C(F)(F)F
Conditions	mass density, [2] [kg/m3]	refractive index, [1]	viscosity, [2] [mPa·s]
298.15 K	1590.17	1.4546	8689
303.15 K	1585.41	1.4532	4730
308.15 K	1580.62	1.4518	3285
313.15 K	1575.98	1.4504	2365
318.15 K	1572.04	1.4491	1824
323.15 K	1567.22	1.4477	1517
328.15 K	1562.31	1.4464	1323
333.15 K	1557.66	1.4451	1221
338.15 K	1552.61	1.4439	1129
343.15 K	1548.03	1.443	1098

Conditions	Glass transition temperature [°C]
[2], Glass, DTA	-40
